Data published in the NIST ThermoML archive (doi:10.1016/j.jct.2006.04.005).

Key:
[1] = 303.15 K, 101 kPa, Liquid; for viscosity: Capillary tube (Ostwald / Ubbelohde) method; for mass density: Pycnometric method
[2] = xn = mol fraction of the nth substance listed; conditions: 303.15 K, 101 kPa, Liquid; for viscosity: Capillary tube (Ostwald / Ubbelohde) method; for excess molar volume: Direct dilatometry; for mass density: Pycnometric method

Clc1ccc(Cl)c(Cl)c1 [1,2,4-trichlorobenzene]
[1]
Conditions	mass density [kg/m3]	speed of sound [m/s]	viscosity [mPa·s]
–	1442.14	1260	1.613

Clc1ccc(Cl)c(Cl)c1 [1,2,4-trichlorobenzene] + C[S+](C)[O-]
[2]
Conditions	excess molar volume [m3/mol]	mass density [kg/m3]	speed of sound [m/s]	viscosity [mPa·s]
x2 = 0	–	1442.14	1260	1.613
x2 = 0.0911	1.2e-08	–	1253	1.647
x2 = 0.1214	1.6e-08	–	1252	1.658
x2 = 0.1805	2.3e-08	–	1257	1.677
x2 = 0.2144	2.7e-08	–	1259	1.688
x2 = 0.251	3.2e-08	–	1264	1.699
x2 = 0.3225	3.9e-08	–	1274	1.719
x2 = 0.4115	4.6e-08	–	1285	1.742
x2 = 0.467	4.8e-08	–	1296	1.755
x2 = 0.5001	5e-08	–	1302	1.763
x2 = 0.5524	4.8e-08	–	1316	1.773
x2 = 0.6207	4.7e-08	–	1339	1.786
x2 = 0.7005	4e-08	–	1379	1.796
x2 = 0.7829	3e-08	–	1415	1.801
x2 = 0.8014	2.8e-08	–	1423	1.802
x2 = 0.9228	1.2e-08	–	1459	1.803

Clc1ccccc1Cl [1,2-dichlorobenzene]
[1]
Conditions	mass density [kg/m3]	speed of sound [m/s]	viscosity [mPa·s]
–	1299.24	1261	1.302

Clc1ccccc1Cl [1,2-dichlorobenzene] + C[S+](C)[O-]
[2]
Conditions	excess molar volume [m3/mol]	mass density [kg/m3]	speed of sound [m/s]	viscosity [mPa·s]
x2 = 0	–	1299.24	1261	1.302
x2 = 0.104	2.3e-08	–	1264	1.379
x2 = 0.1511	3.3e-08	–	1268	1.409
x2 = 0.2041	4e-08	–	1274	1.443
x2 = 0.2506	4.7e-08	–	1279	1.472
x2 = 0.301	5.3e-08	–	1284	1.502
x2 = 0.4025	6e-08	–	1303	1.56
x2 = 0.4511	6.3e-08	–	1312	1.587
x2 = 0.521	6.5e-08	–	1329	1.623
x2 = 0.6511	5.8e-08	–	1367	1.686
x2 = 0.7221	5.3e-08	–	1394	1.719
x2 = 0.7519	4.9e-08	–	1403	1.73
x2 = 0.8002	4e-08	–	1417	1.751
x2 = 0.8514	3.5e-08	–	1435	1.766
x2 = 0.9019	2.3e-08	–	1446	1.782
x2 = 0.9405	1.3e-08	–	1457	1.782

Clc1cccc(Cl)c1 [1,3-dichlorobenzene]
[1]
Conditions	mass density [kg/m3]	speed of sound [m/s]	viscosity [mPa·s]
–	1277.12	1242	1.025

Clc1cccc(Cl)c1 [1,3-dichlorobenzene] + C[S+](C)[O-]
[2]
Conditions	excess molar volume [m3/mol]	mass density [kg/m3]	speed of sound [m/s]	viscosity [mPa·s]
x2 = 0	–	1277.12	1242	1.025
x2 = 0.0801	1.6e-08	–	1244	1.107
x2 = 0.1124	2.2e-08	–	1248	1.14
x2 = 0.1506	2.7e-08	–	1253	1.181
x2 = 0.2075	3.5e-08	–	1256	1.232
x2 = 0.2511	4e-08	–	1268	1.273
x2 = 0.3162	4.5e-08	–	1387	1.329
x2 = 0.4219	5.3e-08	–	1395	1.419
x2 = 0.4507	5.5e-08	–	1305	1.445
x2 = 0.5005	5.6e-08	–	1345	1.487
x2 = 0.6224	5.4e-08	–	1370	1.586
x2 = 0.6819	5e-08	–	1399	1.632
x2 = 0.7517	4.3e-08	–	1416	1.68
x2 = 0.8015	3.5e-08	–	1431	1.715
x2 = 0.852	2.7e-08	–	1455	1.742
x2 = 0.9221	1.7e-08	–	1467	1.778

Cc1ccccc1Cl [2-chlorotoluene]
[1]
Conditions	mass density [kg/m3]	speed of sound [m/s]	viscosity [mPa·s]
–	1072.81	1284	0.887

Cc1ccccc1Cl [2-chlorotoluene] + C[S+](C)[O-]
[2]
Conditions	excess molar volume [m3/mol]	mass density [kg/m3]	speed of sound [m/s]	viscosity [mPa·s]
x2 = 0	–	1072.81	1284	0.887
x2 = 0.104	1.1e-08	–	1303	1.013
x2 = 0.1845	2.1e-08	–	1324	1.123
x2 = 0.2141	2.5e-08	–	1330	1.16
x2 = 0.2552	2.9e-08	–	1343	1.209
x2 = 0.3075	3.3e-08	–	1352	1.266
x2 = 0.376	3.9e-08	–	1369	1.342
x2 = 0.4079	4.2e-08	–	1377	1.375
x2 = 0.5224	4.6e-08	–	1403	1.49
x2 = 0.551	4.5e-08	–	1410	1.518
x2 = 0.6005	4.2e-08	–	1422	1.564
x2 = 0.7241	3.1e-08	–	1446	1.667
x2 = 0.761	2.7e-08	–	1450	1.69
x2 = 0.8011	2.3e-08	–	1460	1.724
x2 = 0.8711	1.6e-08	–	1464	1.773
